US10981932B2, “Macrocyclic indole derivatives” (Bayer Aktiengesellschaft, priority 2016, dated 2021)
Like-named read-outs stand apart in the source and are kept apart here.

Columns and labels:
[1] = tested on: MV-4-11; experiment: Anti-proliferative effect (CellTiter-Glo, 72 h), MV-4-11; format: cell-based; settings: MV-4-11 cells, median, read-out: IC50 antiproliferation assay MV-4-11 [M] (median)
Procedure: Assessment of the Anti-Proliferative Effect of Compounds in Different Cell Lines
The impact of compounds on the proliferation of different cell lines was assessed using the CellTiter-Glo® Luminescent Cell Viability reagent from Promega (G7573). Of note, SUDHL10 and SUDHL5 (DLBCL), NCI-H929 (Multiple Myeloma), A2780 (ovarian carcinoma) as well as MV-4-11(AML) cells are sensitive to MCL-1 inhibition.
In parallel, cells were plated in a reference (day 0) plate for time zero determination.
Rim wells were excluded. The cells were incubated for 72 h hours in a humidified incubator at 37° C. The day 0 plate was measured by adding 30 μl/well of CTG solution (CellTiter-Glo® Luminescent Cell Viability reagent, Promega G7573) to time zero wells in the reference plate followed by a 10 minutes incubation and luminescence reading at 0.1 ms, using the PHERAstar FS microplate reader (BMG Labtech).
After 72 h incubation, the treated plates were measured in the same way as the day 0 plate mentioned above.

[2] = tested on: SUDHL5; experiment: Induction of caspase-3/7 activity (Caspase-Glo 3/7), SUDHL5; format: cell-based; settings: caspase-3/7 induction, SUDHL5 cells, 3 h treatment, median
Outline: (§1)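 Caspase-Glo 3/7 luminescence measured after 3 h compound exposure at 37 °C in SUDHL10 and SUDHL5 cells. EC50 values come from background-corrected signals, with curve bottom set to 1 and plateau set to maximal induction by the reference compound.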

[3] = tested on: SUDHL10; experiment: Induction of cytotoxicity (CellTiter-Glo, 5 h), SUDHL10
[4] = molecular target: MCL-1 (Homo sapiens, UniProt Q07820); experiment: Protein-protein interaction assay MCL-1/Noxa BH3 peptide (MCL-1 assay), TR-FRET; format: binding; settings: MBP-MCL-1 / Noxa BH3-derived peptide, median
Chain of MCL-1 (Q07820 whole entry): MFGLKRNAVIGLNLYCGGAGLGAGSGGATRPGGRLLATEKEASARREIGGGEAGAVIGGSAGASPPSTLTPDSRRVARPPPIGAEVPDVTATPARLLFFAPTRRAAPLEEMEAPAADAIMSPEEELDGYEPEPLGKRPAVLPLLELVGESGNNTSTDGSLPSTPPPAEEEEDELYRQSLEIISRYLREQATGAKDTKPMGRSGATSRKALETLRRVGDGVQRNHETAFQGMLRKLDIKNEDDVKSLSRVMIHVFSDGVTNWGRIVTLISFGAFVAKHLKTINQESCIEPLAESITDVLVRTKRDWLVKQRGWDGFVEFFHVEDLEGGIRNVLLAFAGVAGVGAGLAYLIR
Outline: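 MBP-MCL-1 (1 nM final) was preincubated 10 min at 22 °C with compounds (11 concentrations, 0.1 nM–20 μM, duplicates) in Tris pH 7 buffer with NaCl, KF, Tween-20, DTT and BGG. After 1 h at 22 °C in the dark plus overnight at 4 °C, anti-MBP Eu-cryptate/streptavidin-XL665 TR-FRET was read; IC50 came from a 4-parameter fit.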

[5] = tested on: SUDHL10; experiment: Induction of caspase-3/7 activity (Caspase-Glo 3/7), SUDHL10; format: cell-based; settings: caspase-3/7 induction, SUDHL10 cells, 3 h treatment, median
Outline: as §1

[6] = tested on: A2780; experiment: Anti-proliferative effect (CellTiter-Glo, 72 h), A2780; format: cell-based; settings: A2780 cells, median, read-out: IC50 antiproliferation assay A2780 [M] (median)
Outline: (§2)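 Anti-proliferative activity is derived from ATP-based luminescence (CellTiter-Glo) in cells exposed to compound for 72 h at 37 °C, set against a time zero plate read at seeding.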

[7] = tested on: SUDHL5; experiment: Anti-proliferative effect (CellTiter-Glo, 72 h), SUDHL5; format: cell-based; settings: SUDHL5 cells, antiproliferation, median, read-out: Antiproli SUDHL5 [M] (median)
Outline: as §2

[8] = tested on: SUDHL5; experiment: Induction of cytotoxicity (CellTiter-Glo, 5 h), SUDHL5
[9] = Homo sapiens, SU-DHL10, 5 h, read-out: Cytotox SUDHL10 [M] (median), SUDHL10 cells, cytotoxicity induction, CellTiter-Glo, 5 h incubation, median
[10] = Homo sapiens, SU-DHL-5, 72 h, 72 h incubation
[11] = Homo sapiens, SU-DHL-5, 5 h, read-out: Cytotox SUDHL5 [M] (median), SUDHL5 cells, cytotoxicity induction, CellTiter-Glo, 5 h incubation, median
[12] = read-out: Cytotox SUDHL10 [M] (median), SUDHL10 cells, cytotoxicity induction, CellTiter-Glo, 5 h incubation, median
[13] = Homo sapiens, SU-DHL10, 5 h, read-out: Cytotox SUDHL10 [M] (median), SUDHL10 cells, cytotoxicity induction, CellTiter-Glo, 5 h, median
[14] = Homo sapiens, SU-DHL-5, 72 h, 72 h
[15] = Homo sapiens, SU-DHL-5, 5 h, read-out: Cytotox SUDHL5 [M] (median), SUDHL5 cells, cytotoxicity induction, CellTiter-Glo, 5 h, median

Row | IC50 ([1]; Homo sapiens, MV4-11, 72 h) | EC50 ([2]; Homo sapiens, SU-DHL-5, 3 h) | IC50 [4] | EC50 ([5]; Homo sapiens, SU-DHL10, 3 h) | IC50 ([6]; Homo sapiens, A2780, 72 h) | IC50 [7, 10] | EC50 [5] | IC50 [6] | IC50 [7, 14] | IC50 [1] | EC50 [2] | IC50 ([7]; 72 h incubation) | Structure (SMILES) | IC50 [3, 9] | IC50 [8, 11] | IC50 [3, 12] | IC50 [3, 13] | IC50 [8, 15] | IC50 ([8]; read-out: Cytotox SUDHL5 [M] (median), SUDHL5 cells, cytotoxicity induction, CellTiter-Glo, 5 h incubation, median)
1 | 1.58e-05 M | 17 µM | 0.00528 µM | 19 µM | 1.72e-05 M | – | – | – | 9.86e-06 M | – | – | – | Cc1c2c(nn1C)COCCCCn1c(C(=O)O)c(CCCOc3cccc4cc(Cl)ccc34)c3cccc-2c31 (racemic) [Example 295, (rac)-7-{3-[(6-chloronaphthalen-1-yl)oxy]propyl}-2,3-dimethyl-2,10,11,12,13,15-hexahydropyrazolo[4′,3′:9,10][1,6]oxazacycloundecino[8,7,6-hi]indole-8-carboxylic Acid] | – | – | – | 1.8e-05 M | 1.61e-05 M | –
2 | 9.4e-06 M | 8.78 µM | 0.0017 µM | 20.5 µM | 2.66e-05 M | – | – | – | 1.09e-05 M | – | – | – | CCc1nn(C)c2c1-c1cccc3c(CCCOc4cccc5c(F)cccc45)c(C(=O)O)n(c13)CCCCOC2 (racemic) [Example 298, (rac)-3-ethyl-7-{3-[(5-fluoronaphthalen-1-yl)oxy]propyl}-1-methyl-1,10,11,12,13,15-hexahydropyrazolo[4′,3′:9,10][1,6]oxazacycloundecino[8,7,6-hi]indole-8-carboxylic Acid] | – | – | – | 2.27e-05 M | 9.1e-06 M | –
3 | 5.99e-06 M | 1.19 µM | 0.00143 µM | 3.29 µM | 1.56e-05 M | – | – | – | 2e-06 M | – | – | – | Cc1c2c(nn1C)COCCCCn1c(C(=O)O)c(CCCOc3cccc4cc(F)ccc34)c3cccc-2c31 (racemic) [Example 301, (rac)-7-{3-[(6-fluoronaphthalen-1-yl)oxy]propyl}-2,3-dimethyl-2,10,11,12,13,15-hexahydropyrazolo[4′,3′:9,10][1,6]oxazacycloundecino[8,7,6-hi]indole-8-carboxylic Acid] | – | – | – | 3.5e-06 M | 1.6e-06 M | –
4 | 3.13e-05 M | > 33 µM | 0.0105 µM | > 33 µM | 1.34e-05 M | – | – | – | 9.84e-06 M | – | – | – | CCc1nn(C)c2c1-c1cccc3c(CCCOc4cccc5cc(Cl)ccc45)c(C(=O)O)n(c13)CCCCOC2 (racemic) [Example 304, (rac)-11-(3-((6-chloronaphthalen-1-yl)oxy)propyl)-12-ethyl-10-methyl-4,5,6,7,9,10-hexahydropyrazolo[4′,3′:9,10][1,6]oxaazacycloundecino[8,7,6-hi]indole-2-carboxylic Acid] | – | – | – | > 3.3e-05 M | > 3.3e-05 M | –
5 | 1.84e-05 M | > 33 µM | 0.0129 µM | > 33 µM | 1.76e-05 M | – | – | – | 1.19e-05 M | – | – | – | Cc1ccc2c(OCCCc3c(C(=O)O)n4c5c(cccc35)-c3c(nn(C)c3C)COCCCC4)cccc2c1 (racemic) [Example 307, (rac)-11,12-dimethyl-1-(3-((6-methylnaphthalen-1-yl)oxy)propyl)-4,5,6,7,9,11-hexahydropyrazolo[4′,3′:9,10][1,6]oxaazacycloundecino[8,7,6-hi]indole-2-carboxylic Acid] | – | – | – | > 3.3e-05 M | > 3.3e-05 M | –

More lines, now with the values behind:

Row | Structure (SMILES) | IC50 ([1]; Homo sapiens, MV4-11, 72 h) | EC50 ([2]; Homo sapiens, SU-DHL-5, 3 h) | IC50 [4] | EC50 ([5]; Homo sapiens, SU-DHL10, 3 h) | IC50 ([6]; Homo sapiens, A2780, 72 h) | IC50 [7, 10] | EC50 [5] | IC50 [6] | IC50 [7, 14] | IC50 [1] | EC50 [2] | IC50 ([7]; 72 h incubation) | IC50 [3, 9] | IC50 [8, 11] | IC50 [3, 12] | IC50 [3, 13] | IC50 [8, 15] | IC50 ([8]; read-out: Cytotox SUDHL5 [M] (median), SUDHL5 cells, cytotoxicity induction, CellTiter-Glo, 5 h incubation, median)
6 | CN1CCCCn2c(C(=O)O)c(CCCOc3cccc4ccccc34)c3cccc(c32)-c2c(CC(F)(F)F)nn(C)c2C1 (racemic) [Example 222, (rac)-1,14-dimethyl-7-[3-(naphthalen-1-yloxy)propyl]-3-(2,2,2-trifluoroethyl)-10,11,12,13,14,15-hexahydro-1H-pyrazolo[3′,4′:8,9][1,6]diazacycloundecino[10,11,1-hi]indole-8-carboxylic Acid] | 7.87e-06 M | 14.4 µM | 0.00597 µM | 18.2 µM | 2.46e-05 M | 9.85e-06 M | – | – | – | – | – | – | 2.01e-05 M | 1.15e-05 M | – | – | – | –
7 | CN1CCCCn2c(C(=O)O)c(CCCOc3cccc4ccccc34)c3cccc(c32)-c2c(/C=C/F)nn(C)c2C1 (racemic) [Example 225, (rac)-3-[(E)-2-fluoroethenyl]-1,14-dimethyl-7-[3-(naphthalen-1-yloxy)propyl]-10,11,12,13,14,15-hexahydro-1H-pyrazolo[3′,4′:8,9][1,6]diazacycloundecino[10,11,1-hi]indole-8-carboxylic Acid] | 1.85e-05 M | 16.5 µM | 0.0032 µM | 19.6 µM | 2.33e-05 M | 7.21e-06 M | > 33 µM | – | – | – | – | – | 3.27e-05 M | 1.32e-05 M | > 3.3e-05 M | – | – | –
8 | CCc1c2c(nn1C)COCCCCn1c(C(=O)O)c(CCCOc3cccc4c3CCCC4)c3cccc-2c31 (racemic) [Example 290, (rac)-12-ethyl-11-methyl-1-(3-((5,6,7,8-tetrahydronaphthalen-1-yl)oxy)propyl)-4,5,6,7,9,11-hexahydropyrazolo[4′,3′:9,10][1]oxa[6]azacycloundecino[8,7,6-hi]indole-2-carboxylic Acid] | 9.57e-06 M | 3.38 µM | 0.0028 µM | 13.6 µM | > 3.3e-05 M | – | – | 2.62e-05 M | 5.06e-06 M | – | – | – | – | – | – | 1.19e-05 M | 3.61e-06 M | –
9 | CCc1nn(C)c2c1-c1cccc3c(CCCOc4cccc5c4CCCC5)c(C(=O)O)n(c13)CCCCOC2 (racemic) [Example 291, (rac)-12-ethyl-10-methyl-1-(3-((5,6,7,8-tetrahydronaphthalen-1-yl)oxy)propyl)-4,5,6,7,9,10-hexahydropyrazolo[4′,3′:9,10][1]oxa[6]azacycloundecino[8,7,6-hi]indole-2-carboxylic Acid] | 1.82e-05 M | 8.51 µM | 0.00238 µM | 32 µM | > 3.3e-05 M | – | > 33 µM | – | 8.71e-06 M | – | – | – | – | – | – | > 3.3e-05 M | 8.6e-06 M | –
10 | Cc1ccc2c(CCCOc3cccc4cc(F)ccc34)c(C(=O)O)n3c2c1-c1c(nn(CCN2CCOCC2)c1C)COCCCC3 (racemic) [Example 292, (rac)-7-{3-[(6-fluoronaphthalen-1-yi)oxy]propyl}-3,4-dimethyl-2-[2-(morpholin-4-yl)ethyl]-2,10,11,12,13,15-hexahydropyrazolo[4′,3′:9,10][1,6]oxazacycloundecino[8,7,6-hi]indole-8-carboxylic Acid] | 8.52e-06 M | 0.671 µM | 0.00184 µM | 1.21 µM | 1.58e-05 M | – | – | – | 1.59e-06 M | – | – | – | – | – | – | 1.52e-06 M | 1.13e-06 M | –
11 | CN1CCCn2c(C(=O)O)c(CCCOc3cccc4ccccc34)c3cccc(c32)-c2c(nn(C)c2COc2ccc(N3CCN(S(=O)(=O)N(C)C)CC3)cc2)C1 (single isomer, unassigned; enantiomer 2) [Example 1-113, 11-({4-[4-(Dimethylsulfamoyl)piperazin-1-yl]phenoxy}methyl)-7,10-dimethyl-1-[3-(1-naphthyloxy)propyl]-4,5,6,7,8,10-hexahydropyrazolo[3′,4′:7,8][1,5]diazecino[9,10,1-hi]indole-2-carboxylic Acid (Enantiomer 2)] | – | – | 0.0277 µM | – | – | – | 9.08 µM | – | – | 1.2e-05 M | 10.5 µM | 1.05e-05 M | – | – | 2.06e-05 M | – | – | 1.31e-05 M
